Experimental data: US12070455B2, “Thienopyrrole compounds” (Gilead Sciences, Inc., priority 2021, dated 2024)
pEC50: −log10 of the molar value.

How the values were obtained:
TLR7 = molecular target: T1, TLR7 (Homo sapiens, UniProt Q9NYK1); assay: TLR7 human peripheral blood mononuclear cell (PBMC) cell-based assay; conditions: human PBMCs; 1 h with test antagonist, then TLR7 agonist GS-986 400 nM for 6 h; cytokines (IL-6 and IFNα) in supernatant; read-out: TLR-7 EC50
T1 construct: Human peripheral blood mononuclear cells (PBMCs) consist of lymphocytes, monocytes and dendritic cells that express TLR7, TLR8 and TLR9; endogenous in cells; host or cells: cryopreserved human PBMCs from healthy donors
T1 sequence (Q9NYK1 27-1049): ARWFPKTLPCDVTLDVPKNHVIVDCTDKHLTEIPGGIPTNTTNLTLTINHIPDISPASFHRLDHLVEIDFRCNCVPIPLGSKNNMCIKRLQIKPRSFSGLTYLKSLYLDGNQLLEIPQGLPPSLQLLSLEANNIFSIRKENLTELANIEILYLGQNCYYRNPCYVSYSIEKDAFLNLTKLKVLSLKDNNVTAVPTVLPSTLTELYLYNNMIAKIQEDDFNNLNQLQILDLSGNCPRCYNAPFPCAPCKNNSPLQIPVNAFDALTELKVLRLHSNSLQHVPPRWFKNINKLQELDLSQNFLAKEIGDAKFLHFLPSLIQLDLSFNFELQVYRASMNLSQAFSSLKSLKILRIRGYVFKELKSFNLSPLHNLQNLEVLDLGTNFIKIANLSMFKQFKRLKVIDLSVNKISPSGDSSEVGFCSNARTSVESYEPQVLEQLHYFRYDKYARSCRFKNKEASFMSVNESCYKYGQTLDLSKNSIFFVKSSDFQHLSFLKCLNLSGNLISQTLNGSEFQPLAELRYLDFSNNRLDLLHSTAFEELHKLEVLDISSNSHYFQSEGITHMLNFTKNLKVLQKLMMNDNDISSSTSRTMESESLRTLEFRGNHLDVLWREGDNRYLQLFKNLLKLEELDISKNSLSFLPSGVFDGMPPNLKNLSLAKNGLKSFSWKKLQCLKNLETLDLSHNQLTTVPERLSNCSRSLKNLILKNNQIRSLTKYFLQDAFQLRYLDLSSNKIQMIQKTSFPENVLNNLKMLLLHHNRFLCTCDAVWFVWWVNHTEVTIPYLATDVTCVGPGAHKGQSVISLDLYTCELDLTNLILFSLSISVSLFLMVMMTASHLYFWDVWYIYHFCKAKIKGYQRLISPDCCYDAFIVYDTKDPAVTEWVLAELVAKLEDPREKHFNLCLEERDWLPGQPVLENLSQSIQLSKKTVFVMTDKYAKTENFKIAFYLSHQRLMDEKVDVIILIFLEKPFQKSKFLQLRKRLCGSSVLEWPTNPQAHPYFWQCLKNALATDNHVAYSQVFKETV
From the text: TLR7/9 Human Peripheral Blood Mononuclear Cell (PBMC) Cell-Based Assay
Human peripheral blood mononuclear cells (PBMCs) consist of lymphocytes, monocytes and dendritic cells that express TLR7, TLR8 and TLR9. These cells respond to TLR7, TLR8 and TLR9 ligand stimulation and produce cytokines and chemokines in vitro and in vivo. Human PBMCs are therefore suitable to be used in a cell-based assay to assess the in vitro potency of a TLR 7, 8, and/or 9 antagonist.
Cryopreserved human PBMCs from healthy donors were thawed and resuspended in RPMI-1640 media with L-glutamine (Corning) supplemented with 10% Fetal Bovine Serum (Hyclone) and 1× Penicillin-Streptomycin (Corning). After counting, the cell density was adjusted to 2 million cells/ml and incubated for 1 hour at 37° C., 5% CO2 for recovery. Following the recovery, the cells were plated by adding 50 μl per well (100,000 cells) to 384-well cell culture plates (Greiner) containing 250 nl of test antagonists in 100% DMSO per well, in a 10 points dose response in quadruplicates. PBMCs were incubated in the presence of test antagonists for one hour at 37° C., 5% CO2 before being stimulated with a TLR7 or TLR9 agonist. GS-986 (Gilead Sciences) was used as the TLR7 agonist at a final concentration of 400 nM. ODN-2216 (InvivoGen) was used as the TLR9 agonist at a final concentration of 3 μM. PBMCs were incubated in the presence of the test antagonist and the TLR7 (or TLR9) agonist for an additional 6 hours at 37° C., 5% CO2. At the end of the incubation, the cell culture plates were centrifuged at 500 g for 5 min, and the cell culture supernatant was collected. The level of cytokines (IL-6 and IFNα) in the supernatant was measured by electrochemiluminescence immunoassays (Mesoscale Discovery) following manufacturer's recommended protocols. The level of cytokine measured was plotted against the test antagonist concentration and fitted to a sigmoidal function to determine the EC50, which are shown below in Table 6.

TLR8 = molecular target: T2, TLR8 (Homo sapiens, UniProt Q9NR97); assay: TLR8 human peripheral blood mononuclear cell (PBMC) cell-based assay; conditions: human PBMCs; 1 h with antagonist, then TLR8 agonist Compound A 800 nM for 6 h; cytokines (TNFa and IL12p40) in supernatant; read-out: TLR-8 EC50
T2 construct: Human peripheral blood mononuclear cells (PBMCs) consist of lymphocytes, monocytes and dendritic cells that express TLR7, TLR8 and TLR9; endogenous in cells; host or cells: cryopreserved human PBMCs from healthy donors
T2 sequence (Q9NR97 27-1041): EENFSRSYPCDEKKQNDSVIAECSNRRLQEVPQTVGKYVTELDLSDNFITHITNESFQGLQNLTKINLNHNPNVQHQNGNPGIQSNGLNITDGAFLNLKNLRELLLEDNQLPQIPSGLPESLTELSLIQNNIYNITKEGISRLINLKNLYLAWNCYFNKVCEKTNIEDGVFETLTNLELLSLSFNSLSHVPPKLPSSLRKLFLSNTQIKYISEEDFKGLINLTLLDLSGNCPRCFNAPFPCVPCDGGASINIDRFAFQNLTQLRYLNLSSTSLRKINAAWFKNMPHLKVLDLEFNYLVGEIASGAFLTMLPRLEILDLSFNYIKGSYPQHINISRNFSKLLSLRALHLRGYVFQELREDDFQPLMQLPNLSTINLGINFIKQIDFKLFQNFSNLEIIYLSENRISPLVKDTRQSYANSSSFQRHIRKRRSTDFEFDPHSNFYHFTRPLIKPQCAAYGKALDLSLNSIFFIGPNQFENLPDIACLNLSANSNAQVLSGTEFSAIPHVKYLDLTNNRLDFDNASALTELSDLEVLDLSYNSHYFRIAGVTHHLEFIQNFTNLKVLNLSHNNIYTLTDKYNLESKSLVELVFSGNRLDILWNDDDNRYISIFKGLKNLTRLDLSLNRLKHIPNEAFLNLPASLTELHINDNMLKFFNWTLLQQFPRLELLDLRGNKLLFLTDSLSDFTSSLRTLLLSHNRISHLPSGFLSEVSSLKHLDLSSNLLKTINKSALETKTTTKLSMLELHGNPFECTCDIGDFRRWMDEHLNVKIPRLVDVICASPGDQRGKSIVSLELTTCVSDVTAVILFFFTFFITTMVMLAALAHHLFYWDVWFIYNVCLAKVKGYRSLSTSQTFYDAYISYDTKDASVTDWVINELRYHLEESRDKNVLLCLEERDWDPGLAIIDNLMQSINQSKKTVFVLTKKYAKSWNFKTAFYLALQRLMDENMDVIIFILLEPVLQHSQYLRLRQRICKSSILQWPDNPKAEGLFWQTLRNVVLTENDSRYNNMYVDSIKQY
Method: TLR8 Human Peripheral Blood Mononuclear Cell (PBMC) Cell-Based Assay
Cryopreserved human PBMCs from healthy donors were thawed and resuspended in RPMI-1640 media with L-glutamine (Corning) supplemented with 10% Fetal Bovine Serum (Hyclone) and 1× Penicillin-Streptomycin (Corning). After counting, the cell density was adjusted to 2 million cells/ml and incubated for 1 hour at 37° C., 5% CO2 for recovery. Following the recovery, the cells were plated by adding 50 μl per well (100,000 cells) to 384-well cell culture plates (Greiner) containing 250 nl of test antagonists in 100% DMSO per well, in a 10 points dose response in quadruplicates. PBMCs were incubated in the presence of antagonists for one hour at 37° C., 5% CO2 before being stimulated with TLR8 agonist. Compound A (Gilead Sciences, U.S. Pat. No. 10,285,990) was used as the TLR8 agonist at a final concentration of 800 nM. PBMCs were incubated in the presence of antagonist and the TLR8 agonist for an additional 6 hours at 37° C., 5% CO2. At the end of the incubation, the cell culture plates were centrifuged at 500 g for 5 min, and the cell culture supernatant was collected. The level of cytokines (TNFa and IL12p40) in the supernatant was measured by electrochemiluminescence immunoassays (Mesoscale Discovery) following manufacturer's recommended protocols. The level of cytokine measured was plotted against the antagonist concentration and fitted to a sigmoidal function to determine the EC50, which are shown below in Table 6.

pEC50 (TLR7) | pEC50 (TLR8) | SMILES
9.39 | 7.82 | Cc1c([C@@H]2C[C@H]3CC[C@@H](C2)N3CC(N)=O)sc2[nH]c(-c3cn4ncnc4c4c3COC4)c(C(C)C)c12 [Example 49]
8.35 | 7.56 | Cc1c(C2CCN(CC(N)=O)CC2)sc2[nH]c(-c3cn4ncnc4c4c3CCO4)c(C(C)C)c12 [Example 36]
9.82 | 8.80 | Cc1c(C2CCC(N3CC(C)(O)C3)CC2)sc2[nH]c(-c3cn4ncnc4c4c3CCC4)c(C(C)C)c12 (centres unmarked) [Example 28]
9.59 | 8.59 | Cc1c(C2CCC(N3CC4(CCNC4=O)C3)CC2)sc2[nH]c(-c3cn4ncnc4c4c3CCC4)c(C(C)C)c12 (centres unmarked) [Example 27]
9.49 | 8.33 | Cc1c(C2CCN(S(=O)(=O)N3CCNCC3)CC2)sc2[nH]c(-c3cn4ncnc4c4c3CCC4)c(C(C)C)c12 [Example 11, 5-(8,9-dihydro-7H-cyclopenta[c][1,2,4]triazolo[1,5-a]pyridin-6-yl)-4-isopropyl-3-methyl-2-(1-(piperazin-1-ylsulfonyl)piperidin-4-yl)-6H-thieno[2,3-b]pyrrole]
9.24 | 9.09 | Cc1c([C@@H]2C[C@@H]3C[C@H]2CN3CC(N)=O)sc2[nH]c(-c3cn4ncnc4c4c3CCO4)c(C(C)C)c12 [Example 38]
9.24 | 8.80 | CC(C)c1c(-c2cn3ncnc3c3c2CCC3)[nH]c2sc(C3CCN(CC(N)=O)CC3)cc12 [Example 34]
9.21 | 7.79 | Cc1nc2c3c(c(-c4[nH]c5sc(C6CCN(C(=O)[C@H]7COCCN7)CC6)c(C)c5c4C(C)C)cn2n1)CCC3 [Example 53]
8.82 | 7.95 | Cc1c(C2CCN(C(=O)[C@H]3C[C@H](O)CN3)CC2)sc2[nH]c(-c3cn4ncnc4c4c3CCC4)c(C(C)C)c12 [Example 32]
10.30 | 8.86 | Cc1c(C2CCN(C(=O)[C@H]3C[C@@]4(CNCCO4)C3)CC2)sc2[nH]c(-c3cn4ncnc4c4c3CCC4)c(C(C)C)c12 [Example 25]
9.64 | 8.75 | Cc1c(C23CCNCC2C3)sc2[nH]c(-c3cn4ncnc4c4c3CCC4)c(C(C)C)c12 (centres unmarked) [Example 5, 2-(3-azabicyclo[4.1.0]heptan-6-yl)-5-(8,9-dihydro-7H-cyclopenta[c][1,2,4]triazolo[1,5-a]pyridin-6-yl)-4-isopropyl-3-methyl-6H-thieno[2,3-b]pyrrole]
8.96 | 8.69 | Cc1nc2c3c(c(-c4[nH]c5sc([C@@H]6C[C@@H]7C[C@H]6CN7CC(N)=O)c(C)c5c4C(C)C)cn2n1)COC3 [Example 43, 2-((1S,4R,5R)-5-(4-isopropyl-3-methyl-5-(2-methyl-7,9-dihydrofuro[3,4-c][1,2,4]triazolo[1,5-a]pyridin-6-yl)-6H-thieno[2,3-b]pyrrol-2-yl)-2-azabicyclo[2.2.1]heptan-2-yl)acetamide]
9.85 | 8.27 | CO[C@@H]1CN[C@@H](C(=O)N2CCC(c3sc4[nH]c(-c5cn6ncnc6c6c5CCC6)c(C(C)C)c4c3C)CC2)C1 [Example 19]
8.22 | 8.32 | Cc1c(C2CCN(CC3(C)COC3)CC2)sc2[nH]c(-c3cn4ncnc4c4c3CCC4)c(C(C)C)c12 [Example 12, 5-(8,9-dihydro-7H-cyclopenta[c][1,2,4]triazolo[1,5-a]pyridin-6-yl)-4-isopropyl-3-methyl-2-(1-((3-methyloxetan-3-yl)methyl)piperidin-4-yl)-6H-thieno[2,3-b]pyrrole]
9.64 | 9.18 | Cc1c(-c2ccc(N3CCNCC3)nc2)sc2[nH]c(-c3cn4ncnc4c4c3CCC4)c(C(C)C)c12 [Example 22]
9.54 | 8.28 | Cc1c(C2CCN(C(=O)[C@@H]3COCCN3)CC2)sc2[nH]c(-c3cn4ncnc4c4c3CCC4)c(C(C)C)c12 [Example 15]
9.59 | 7.81 | Cc1c(C23CCN(CC(N)=O)CC2C3)sc2[nH]c(-c3cn4ncnc4c4c3CCC4)c(C(C)C)c12 (centres unmarked) [Example 10]
10.00 | 9.00 | Cc1c(C2CCC(N3CC4(COC4)C3)CC2)sc2[nH]c(-c3cn4ncnc4c4c3CCC4)c(C(C)C)c12 (centres unmarked) [Example 29]
9.11 | 9.16 | CC(C)c1c(-c2cn3ncnc3c3c2CCC3)[nH]c2sc(C(=O)N3CCNCC3)cc12 [Example 42]
